Laboratory results taken from US20040157930A1, “Histone deacetylase enzyme-inhibiting derivatives of hydroxamic acid as new cytokine synthesis-inhibiting anti-inflammatory drugs” (priority 2001, published 2004).

Experiments:
TNFα [1] = assay: TNFα inhibition test (Moreira et al.); type: cell-based; settings: for IC50: read-out: TNF IC50; for TNF Potency: relative potency, compound 1 = 100.00
From the text: A series of hydroxamic acid derivatives described in EP 901465 were subjected to the histone deacetylase (HDAC) and TNFα inhibition tests in accordance with the methods described by Lechner et al., Biochim Biophys. Acta 1996, 1296, 181-188 and Moreira A. L. et al., J. Exp. Med. 1993, […] respectively.

[2] = system: inflammatory cytokines induced by LPS; assay: LPS-stimulated PBMC cytokine production, summary over all cytokines; settings: Homo sapiens, read-out: IC50, synthesis of all the inflammatory cytokines induced by LPS
Description: (§2) Interferon γ (IFNγ) was measured with a commercially available ELISA assay.

IFNγ [3] = assay: IFNγ synthesis by PBMCs stimulated with IL-12 and IL-18 (ELISA); type: cell-based; settings: Homo sapiens; PBMC, IL-12 10 ng/ml + IL-18 20 ng/ml, 48 h; read-out: IFNγ (from IL-12 + IL-18) IC50
Description: Cytokine IFNγ is produced by the T lymphocytes following their stimulation by pro-inflammatory cytokines, especially IL-12 and IL-18 (Dinarello C. A. and Moldawer L. L. Proinflammatory and anti-inflammatory cytokines in rheumatoid arthritis. A primer for clinicians. 2nd Edition, Amgen Inc., 2000).
At the end, the cells were stimulated for 48 hours in the presence of the compound by simultaneous addition of recombinant IL-12 (10 ng/ml) and recombinant IL-18 (20 ng/ml). The quantity of IFNγ produced was determined with a commercial ELISA assay.

TNFα [4] = assay: LPS-stimulated PBMC cytokine production in vitro: TNFα (ECL); type: cell-based; settings: Homo sapiens, LPS 10 ng/ml, 24 h
Description: (§1) Samples of peripheral blood or buffy coats from healthy volunteers were used. […] At the end of the treatment the pro-inflammatory cytokines TNFα, IL-1β were measured by means of an electrochemiluminescence assay (ECL) using specific commercial antibodies.

IL-1β = assay: LPS-stimulated PBMC cytokine production in vitro: IL-1β (ECL); type: cell-based; settings: Homo sapiens, LPS 10 ng/ml, 24 h
Description: as §1

IFNγ [5] = assay: LPS-stimulated PBMC cytokine production in vitro: IFNγ (ELISA); settings: Homo sapiens, 24 h, read-out: IFNγ IC50
Description: as §2

SMILES	IC50 (TNFα [1])	TNF Potency (TNFα [1])	further results
O=C(Nc1ccc(C(=O)NO)cc1)OCc1ccc2c(c1)OCO2 [Compound 6]	50 nM	14.00	–
O=C(Nc1ccc(C(=O)NO)cc1)OCC1CCc2ccccc2C1 (centres unmarked) [Compound 7]	65.5 nM	10.68	–
O=C(Nc1ccc(C(=O)NO)cc1)OCCC12CC3CC(CC(C3)C1)C2 [Compound 9]	159 nM	4.40	–
O=C(Nc1ccc(C(=O)NO)cc1)OCCCc1ccccc1 [Compound 10]	159 nM	4.40	–
O=C(Nc1ccc(C(=O)NO)cc1)OCCCc1ccccn1 [Compound 12]	230 nM	3.04	–
O=C(Nc1ccc(C(=O)NO)cc1)OCCCc1ccncc1 [Compound 13]	270 nM	2.59	–
O=C(CCCCc1ccccc1)Nc1ccc(C(=O)NO)cc1 [Compound 14]	300 nM	2.33	–
CC(/C=C/C(=O)NO)=C\[C@@H](C)C(=O)c1ccc(N(C)C)cc1 [TSA, trichostatin]	–	–	IC50 [2]: 50 to 200 nM; IC50 (IFNγ [3]): 490 nM; IC50 (TNFα [4]): 50 nM; IC50 (IL-1β): 100 nM; IC50 (IFNγ [5]): 10 nM

Now from value to molecule, other results behind:

IC50 (TNFα [1])	SMILES	TNF Potency (TNFα [1])	further results
7 nM	CCN(CC)Cc1ccc2cc(COC(=O)Nc3ccc(C(=O)NO)cc3)ccc2c1 [Compound 1]	100.00	–
10.2 nM	CCN(CC)Cc1ccc2cc(CCC(=O)Nc3ccc(C(=O)NO)cc3)ccc2c1 [Compound 2]	68.75	–
10.3 nM	CCN(CC)Cc1ccc(COC(=O)Nc2ccc(C(=O)NO)cc2)c2ccccc12 [Compound 3]	68.02	–
11.2 nM	CCN(CC)Cc1ccc2cc(CNC(=O)Nc3ccc(C(=O)NO)cc3)ccc2c1 [Compound 4]	62.68	–
12.7 nM	CCCN(CCC)Cc1ccc2cc(COC(=O)Nc3ccc(C(=O)NO)cc3)ccc2c1 [Compound 5]	55.28	–
67.6 nM	CCCCN(CCCC)Cc1ccc2cc(COC(=O)Nc3ccc(C(=O)NO)cc3)ccc2c1 [Compound 8]	10.32	–
159 nM	O=C(Nc1ccc(C(=O)NO)cc1)OCc1ccc2ccccc2c1 [Compound 11]	4.40	–
1000 nM	CC[N+]([O-])(CC)Cc1ccc2cc(COC(=O)Nc3ccc(C(=O)NO)cc3)ccc2c1 [Compound 15]	0.70	–
